Reference: ChEMBL document CHEMBL1159031, “Cytotoxic quassinoids from Cedronia granatensis” (1992)

Columns and labels:
Assay type in all cases: functional
SNB-78 = assay: Cytotoxicity against human SNB78 cells; details: read-out: Log10LC50 (converted)
A549 = assay: Cytotoxicity against human A549 cells; details: read-out: Log10LC50 (converted)
NCI-H460 = assay: Cytotoxicity against human NCI-H460 cells; details: read-out: Log10LC50 (converted)
K562 = assay: Cytotoxicity against human K562 cells; details: read-out: Log10LC50 (converted)
U-251 = assay: Cytotoxicity against human U251 cells; details: read-out: Log10LC50 (converted)
HCT-116 = assay: Cytotoxicity against human HCT116 cells; details: read-out: Log10LC50 (converted)
OVCAR-8 = assay: Cytotoxicity against human OVCAR8 cells; details: read-out: Log10LC50 (converted)
DMS-114 = assay: Cytotoxicity against human DMS114 cells; details: read-out: Log10LC50 (converted)
[1] = Cytotoxicity against human LXFL 529L cells; details: read-out: Log10LC50 (converted)
HCC 2998 = assay: Cytotoxicity against human HCC2998 cells; details: read-out: Log10LC50 (converted)
SF-295 = assay: Cytotoxicity against human SF295 cells; details: read-out: Log10LC50 (converted)
SNB-75 = assay: Cytotoxicity against human SNB75 cells; details: read-out: Log10LC50 (converted)
RXF 393 = assay: Cytotoxicity against human RXF393 cells; details: read-out: Log10LC50 (converted)
HT-29 = assay: Cytotoxicity against human HT-29 cells; details: read-out: Log10LC50 (converted)
EKVX = assay: Cytotoxicity against human EKVX cells; details: read-out: Log10LC50 (converted)
NCI-H226 = assay: Cytotoxicity against human NCI-H226 cells; details: read-out: Log10LC50 (converted)
M19-MEL = assay: Cytotoxicity against human M19-MEL cells; details: read-out: Log10LC50 (converted)
TK-10 = assay: Cytotoxicity against human TK10 cells; details: read-out: Log10LC50 (converted)
UACC-257 = assay: Cytotoxicity against human UACC257 cells; details: read-out: Log10LC50 (converted)
HOP-92 = assay: Cytotoxicity against human HOP92 cells; details: read-out: Log10LC50 (converted)
KM12 = assay: Cytotoxicity against human KM12 cells; details: read-out: Log10LC50 (converted)
UO-31 = assay: Cytotoxicity against human UO31 cells; details: read-out: Log10LC50 (converted)
HOP-62 = assay: Cytotoxicity against human HOP62 cells; details: read-out: Log10LC50 (converted)
SK-OV-3 = assay: Cytotoxicity against human SKOV3 cells; details: read-out: Log10LC50 (converted)
OVCAR-5 = assay: Cytotoxicity against human OVCAR5 cells; details: read-out: Log10LC50 (converted)
HOP-18 = assay: Cytotoxicity against human HOP18 cells; details: read-out: Log10LC50 (converted)
IGROV-1 = assay: Cytotoxicity against human IGROV1 cells; details: read-out: Log10LC50 (converted)
CAKI-1 = assay: Cytotoxicity against human Caki1 cells; details: read-out: Log10LC50 (converted)
SK-MEL-28 = assay: Cytotoxicity against human SK-MEL-28 cells; details: read-out: Log10LC50 (converted)
CCRF-CEM = assay: Cytotoxicity against human CCRF-CEM cells; details: read-out: Log10LC50 (converted)
NCI-H522 = assay: Cytotoxicity against human NCI-H522 cells; details: read-out: Log10LC50 (converted)
MOLT-4 = assay: Cytotoxicity against human MOLT4 cells; details: read-out: Log10LC50 (converted)
SK-MEL-5 = assay: Cytotoxicity against human SK-MEL-5 cells; details: read-out: Log10LC50 (converted)
ACHN = assay: Cytotoxicity against human ACHN cells; details: read-out: Log10LC50 (converted)
COLO 205 = assay: Cytotoxicity against human COLO205 cells; details: read-out: Log10LC50 (converted)
A498 = assay: Cytotoxicity against human A498 cells; details: read-out: Log10LC50 (converted)
HL-60(TB) = assay: Cytotoxicity against human HL-60(TB) cells; details: read-out: Log10LC50 (converted)
Malme-3M = assay: Cytotoxicity against human MALME-3M cells; details: read-out: Log10LC50 (converted)
OVCAR-3 = assay: Cytotoxicity against human OVCAR-3 cells; details: read-out: Log10LC50 (converted)
SK-MEL-2 = assay: Cytotoxicity against human SK-MEL-2 cells; details: read-out: Log10LC50 (converted)
LOX IMVI = assay: Cytotoxicity against human LOXIMVI cells; details: read-out: Log10LC50 (converted)
KM-20L2 = assay: Cytotoxicity against human KM20L2 cells; details: read-out: Log10LC50 (converted)
OVCAR-4 = assay: Cytotoxicity against human OVCAR4 cells; details: read-out: Log10LC50 (converted)
NCI-H23 = assay: Cytotoxicity against human NCI-H23 cells; details: read-out: Log10LC50 (converted)
SN12C = assay: Cytotoxicity against human SN12C cells; details: read-out: Log10LC50 (converted)
XF498 = assay: Cytotoxicity against human XF498 cells; details: read-out: Log10LC50 (converted)
[2] = Cytotoxicity against human NCI-H322 cells; details: read-out: Log10LC50 (converted)
SF-268 = assay: Cytotoxicity against human SF268 cells; details: read-out: Log10LC50 (converted)
SF-539 = assay: Cytotoxicity against human SF539 cells; details: read-out: Log10LC50 (converted)
HCT-15 = assay: Cytotoxicity against human HCT15 cells; details: read-out: Log10LC50 (converted)
DLD-1 = assay: Cytotoxicity against human DLD1 cells; details: read-out: Log10LC50 (converted)
DMS-273 = assay: Cytotoxicity against human DMS273 cells; details: read-out: Log10LC50 (converted)
[3] = Cytotoxicity against human 786-O cells; details: 786-0, read-out: Log10LC50 (converted)
RPMI-8226 = assay: Cytotoxicity against human RPMI8226 cells; details: read-out: Log10LC50 (converted)
SW-620 = assay: Cytotoxicity against human SW620 cells; details: read-out: Log10LC50 (converted)
SNB-19 = assay: Cytotoxicity against human SNB19 cells; details: read-out: Log10LC50 (converted)
M14 = assay: Cytotoxicity against human M14 cells; details: read-out: Log10LC50 (converted)
[4] = Cytotoxicity against human RXF631 cells; details: RXF 631, read-out: Log10LC50 (converted)
SR = assay: Cytotoxicity against human SR cells; details: read-out: Log10LC50 (converted)
UACC-62 = assay: Cytotoxicity against human UACC62 cells; details: read-out: Log10LC50 (converted)

For `COC(=O)[C@@]12OC[C@]34[C@H]([C@@H](O)[C@@H]1O)[C@@]1(C)[C@H](O)C(=O)C=C(C)[C@@H]1C[C@H]3OC(=O)[C@H](OC(C)=O)[C@@H]24` [ISOBRUCEIN B], the CC50 (SNB-78) was 42.7 µM, the CC50 (A549) was 42.7 µM and the CC50 (NCI-H460) was 14.1 µM. It also gave a CC50 (K562) of 11 µM, a CC50 (U-251) of 42.7 µM and a CC50 (HCT-116) of 18.2 µM. It also gave a CC50 (OVCAR-8) of 21.9 µM, a CC50 (DMS-114) of 1.91 µM and a CC50 [1] of 42.7 µM. It also gave a CC50 (HCC 2998) of 1.58 µM, a CC50 (SF-295) of 32.4 µM and a CC50 (SNB-75) of 14.1 µM. The CC50 (RXF 393) was 10 µM, the CC50 (HT-29) was 42.7 µM and the CC50 (EKVX) was 42.7 µM. The CC50 (NCI-H226) was 14.1 µM, the CC50 (M19-MEL) was 4.79 µM and the CC50 (TK-10) was 42.7 µM. For the same molecule, the CC50 (UACC-257) was 20.9 µM, the CC50 (HOP-92) was 42.7 µM and the CC50 (KM12) was 20.9 µM. It also gave a CC50 (UO-31) of 42.7 µM, a CC50 (HOP-62) of 42.7 µM and a CC50 (SK-OV-3) of 42.7 µM. The CC50 (OVCAR-5) was 42.7 µM, the CC50 (HOP-18) was 42.7 µM and the CC50 (IGROV-1) was 42.7 µM. It also gave a CC50 (CAKI-1) of 42.7 µM, a CC50 (SK-MEL-28) of 3.39 µM and a CC50 (CCRF-CEM) of 42.7 µM. The CC50 (NCI-H522) was 6.17 µM, the CC50 (MOLT-4) was 42.7 µM and the CC50 (SK-MEL-5) was 2.09 µM. For the same molecule, the CC50 (ACHN) was 42.7 µM, the CC50 (COLO 205) was 5.75 µM and the CC50 (A498) was 5.75 µM. It also gave a CC50 (HL-60(TB)) of 0.347 µM, a CC50 (Malme-3M) of 3.02 µM and a CC50 (OVCAR-3) of 42.7 µM. It also gave a CC50 (SK-MEL-2) of 7.08 µM, a CC50 (LOX IMVI) of 8.51 µM and a CC50 (KM-20L2) of 42.7 µM. For the same molecule, the CC50 (OVCAR-4) was 11 µM, the CC50 (NCI-H23) was 3.47 µM and the CC50 (SN12C) was 42.7 µM. It also gave a CC50 (XF498) of 12 µM, a CC50 [2] of 42.7 µM and a CC50 (SF-268) of 40.7 µM. The CC50 (SF-539) was 1.29 µM, the CC50 (HCT-15) was 33.1 µM and the CC50 (DLD-1) was 42.7 µM. For the same molecule, the CC50 (DMS-273) was 2.69 µM, the CC50 [3] was 33.1 µM and the CC50 (RPMI-8226) was 42.7 µM. The CC50 (SW-620) was 39.8 µM, the CC50 (SNB-19) was 42.7 µM and the CC50 (M14) was 2.29 µM. The CC50 [4] was 42.7 µM, the CC50 (SR) was 42.7 µM and the CC50 (UACC-62) was 5.37 µM.

In the case of `COC(=O)[C@]12OC[C@]34[C@H]([C@@H](O)[C@@H]1O)[C@@]1(C)C=C5OC(=O)C=C5[C@@H](C)[C@@H]1C[C@H]3OC(=O)[C@H](OC(C)=O)[C@@H]24` [SERGEOLIDE], the CC50 (SNB-78) is reported as 2.51 µM, the CC50 (A549) is reported as 3.98 µM and the CC50 (NCI-H460) is reported as 0.457 µM. It also gave a CC50 (K562) of 3.98 µM, a CC50 (U-251) of 3.98 µM and a CC50 (HCT-116) of 0.129 µM. It also gave a CC50 (OVCAR-8) of 0.776 µM, a CC50 (DMS-114) of 0.0363 µM and a CC50 [1] of 0.0676 µM. It also gave a CC50 (HCC 2998) of 0.0288 µM, a CC50 (SF-295) of 0.38 µM and a CC50 (SNB-75) of 0.0389 µM. It also gave a CC50 (RXF 393) of 0.0513 µM, a CC50 (HT-29) of 3.8 µM and a CC50 (EKVX) of 0.891 µM. For the same molecule, the CC50 (NCI-H226) was 0.0661 µM, the CC50 (M19-MEL) was 0.0199 µM and the CC50 (TK-10) was 3.98 µM. For the same molecule, the CC50 (UACC-257) was 0.0589 µM, the CC50 (HOP-92) was 3.98 µM and the CC50 (KM12) was 0.437 µM. For the same molecule, the CC50 (UO-31) was 2.88 µM, the CC50 (HOP-62) was 1.91 µM and the CC50 (SK-OV-3) was 3.98 µM. For the same molecule, the CC50 (OVCAR-5) was 3.31 µM, the CC50 (HOP-18) was 3.98 µM and the CC50 (IGROV-1) was 3.98 µM. The CC50 (CAKI-1) was 3.98 µM, the CC50 (SK-MEL-28) was 0.12 µM and the CC50 (CCRF-CEM) was 3.98 µM. The CC50 (NCI-H522) was 0.0158 µM, the CC50 (MOLT-4) was 3.89 µM and the CC50 (SK-MEL-5) was 0.00661 µM. It also gave a CC50 (ACHN) of 3.39 µM, a CC50 (COLO 205) of 0.0219 µM and a CC50 (A498) of 0.0575 µM. The CC50 (HL-60(TB)) was 0.0575 µM, the CC50 (Malme-3M) was 0.012 µM and the CC50 (OVCAR-3) was 3.98 µM. The CC50 (SK-MEL-2) was 0.0269 µM, the CC50 (LOX IMVI) was 0.288 µM and the CC50 (KM-20L2) was 3.98 µM. For the same molecule, the CC50 (OVCAR-4) was 0.0447 µM, the CC50 (NCI-H23) was 0.0708 µM and the CC50 (SN12C) was 3.98 µM. For the same molecule, the CC50 (XF498) was 0.0589 µM, the CC50 [2] was 3.98 µM and the CC50 (SF-268) was 2.09 µM. The CC50 (SF-539) was 0.0257 µM, the CC50 (HCT-15) was 1.91 µM and the CC50 (DLD-1) was 3.24 µM. It also gave a CC50 (DMS-273) of 0.11 µM, a CC50 [3] of 0.407 µM and a CC50 (RPMI-8226) of 3.98 µM. It also gave a CC50 (SW-620) of 3.98 µM, a CC50 (SNB-19) of 3.98 µM and a CC50 (M14) of 0.0209 µM. It also gave a CC50 [4] of 3.72 µM, a CC50 (SR) of 3.98 µM and a CC50 (UACC-62) of 0.0324 µM.
